Measurements taken from PubChem BioAssay (NCI).
“And” between values parts separate entries of the source, which are not always exact repeats. Identical values can stand only once.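 Test compounds were applied to cells in 96-well plates for 48 hours at 5 doses. Abbreviation: GI50, concentration required for 50% inhibition of growth. At the TGI there is no net growth.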

Legend:
Test in all cases: NCI-60 cell line screen, 48 h
HOP-62 NSCLC = test system: HOP-62 NSCLC
HL-60(TB) leukemia = test system: HL-60(TB) leukemia
UACC-257 melanoma = test system: UACC-257 melanoma
OVCAR-8 ovarian = test system: OVCAR-8 ovarian
U251 CNS = test system: U251 CNS
SW-620 colon = test system: SW-620 colon
K-562 leukemia = test system: K-562 leukemia
MCF7 breast = test system: MCF7 breast
HCC-2998 colon = test system: HCC-2998 colon
MDA-MB-231 breast = test system: MDA-MB-231 breast

Row | Structure (SMILES) | TGI (HOP-62 NSCLC) | TGI (HL-60(TB) leukemia) | TGI (UACC-257 melanoma) | TGI (OVCAR-8 ovarian) | TGI (U251 CNS) | TGI (SW-620 colon) | TGI (K-562 leukemia) | TGI (MCF7 breast) | TGI (HCC-2998 colon) | TGI (MDA-MB-231 breast) | GI50 (HL-60(TB) leukemia) | GI50 (UACC-257 melanoma)
1 | O=c1[nH]c(=S)[nH]c2c1CCCN2 | > 100 µM | > 100 µM | > 100 µM | > 100 µM | > 100 µM | > 100 µM |  |  |  |  |  | 
2 | COC1CCC(CO)OO1 (centres undefined) | > 100 µM | 58 µM | > 100 µM |  | > 100 µM |  | > 100 µM |  |  |  |  | 
3 | N/C(=N\N=C/c1c(O)cc(O)cc1O)NO | > 100 µM | > 76.9 µM | > 100 µM | > 100 µM | > 100 µM | > 100 µM | > 100 µM | > 100 µM | > 100 µM |  |  | 
4 | CN(C)Cc1cc(/C=C/C(=O)c2ccc(Br)cc2)cc(CN(C)C)c1O | > 100 µM | 50.6 µM | 33.7 µM | > 100 µM |  | 52 µM | > 100 µM | 50.5 µM | 27.8 µM | 40 µM |  | 
5 | Cc1c2cc[n+](C)cc2c(C)c2c1[nH]c1ccc(OCC(F)(F)F)cc12 |  | > 70.4 µM | 20 µM and > 100 µM | > 100 µM | 1.49 µM | > 100 µM | > 56.6 µM |  | 34.5 µM and > 100 µM |  | 5.13 µM and 16.4 µM | 4.02 µM and 14.8 µM
6 | CCOC(=O)C1=C(N2CCCC2)C(=O)C(C(=O)OCC)C1 (centres undefined) | > 100 µM |  | > 100 µM | > 100 µM | > 100 µM | > 100 µM | > 100 µM | > 100 µM | > 100 µM | > 100 µM |  | 
7 | C=C1C(=O)OC2C[C@@]3(C)CCCC(=C)C3CC12 (some centres undefined) | 34.9 µM |  | 22 µM | 24.6 µM | 21.7 µM | 14.4 µM |  |  | 26.7 µM |  |  | 
8 | Cc1cc(C)c(S(=O)(=O)N(CCCCCN)OCCCN)c(C)c1 | 32.3 µM |  | 32 µM | 34.1 µM | 35.4 µM | 36.3 µM | 60.8 µM | 33.5 µM | 20 µM | 49 µM |  | 
9 | N#Cc1nc(CN2C(=O)c3ccccc3C2=O)oc1N | > 100 µM |  | > 100 µM | > 100 µM | > 100 µM | > 100 µM | > 100 µM | > 100 µM | > 100 µM | > 100 µM |  | 
10 | CC(C)(C1=NC(C(C)(C)C)CO1)C1=N[C@@H](C(C)(C)C)CO1 (some centres undefined) | > 100 µM | > 100 µM | > 100 µM | > 100 µM | > 100 µM | > 100 µM | > 100 µM |  | > 100 µM |  |  | 
11 | CSCCC(NC(=O)C(Cc1c[nH]c2ccccc12)NC(=O)CCNC(=O)OC(C)(C)C)C(=O)NC(CC(=O)O)C(=O)NC(Cc1ccccc1)C(N)=O (centres undefined) | > 50 µM | > 50 µM | > 50 µM |  | > 50 µM | > 50 µM | > 50 µM | > 50 µM | > 50 µM | > 50 µM |  | 
12 | COc1ccc(/C=C/C(=O)c2cc(CN(C)C)c(O)c(CN(C)C)c2)cc1 | 56.1 µM | 54.5 µM | 38.8 µM | > 100 µM | > 100 µM | > 100 µM | 70.7 µM | > 100 µM |  | 69.6 µM |  | 
13 | C/C(N=NS(=O)(=O)c1c(C)cc(C)cc1C)=C1\C=CC=CN1O | > 100 µM | > 100 µM | > 100 µM | > 100 µM | > 100 µM | > 100 µM | > 100 µM |  | > 100 µM |  |  | 
14 | CC(C)(C)N=C1C(=O)C2(C)CCC1C2(C)C (centres undefined) | > 100 µM |  | > 100 µM | > 100 µM | > 100 µM | > 100 µM | > 100 µM | > 100 µM | > 100 µM | > 100 µM |  | 
15 | CC(=O)N1CCOC12N=NC(C)(C)O2 (centres undefined) | > 100 µM |  | > 100 µM | > 100 µM | > 100 µM | > 100 µM | > 100 µM | > 100 µM | > 100 µM | > 100 µM |  | 
16 | CC(C)(C)OC(=O)NCC(c1c[nH]c2ccccc12)c1c[nH]c2ccccc12 | 37 µM | 31.8 µM | 28.6 µM | 34.4 µM | 29.8 µM | 41 µM |  | > 100 µM |  | 31.9 µM |  | 
17 | COc1ccc(-c2csc3c2[N+]2(C)C=CC=C2C3N2CCCC2)cc1 (centres undefined) | > 100 µM | > 100 µM | 93.5 µM | > 100 µM | 23.3 µM | > 100 µM | > 100 µM | > 100 µM |  | > 100 µM |  | 
18 | CCOC(=O)c1cnc2n(c1=O)[C@H]1CCCC[C@@H]1N2 |  | > 100 µM | > 100 µM | > 100 µM | > 100 µM | > 100 µM | > 100 µM | > 100 µM | > 100 µM | > 100 µM |  | 
19 | Nc1ccnc2c1ncn2[C@H]1C[C@H](O)[C@@H](CO)O1 | > 100 µM | > 100 µM | > 100 µM | > 100 µM | > 100 µM | > 100 µM |  | > 100 µM | > 100 µM | > 100 µM |  | 
20 | C#CC(O)/C=C/C(O)CCCC(O)CC#CC(O)C#CCCCCC(O)/C=C/CCCC(=O)CCCCCCCCCCCCCCCC(O)C(O)C#CC(=O)O (centres undefined) | > 25 µM | > 25 µM | > 25 µM | > 25 µM | > 25 µM |  | > 25 µM | > 25 µM | > 25 µM | > 25 µM |  | 
21 | CCC1OC2(C)CC(C#N)(C#N)C1(C#N)C(=N)O2 (centres undefined) |  | > 100 µM | > 100 µM |  | > 100 µM | > 100 µM | > 100 µM | > 100 µM |  | > 100 µM |  | 
22 | CN1Cc2ccccc2C2(COc3ccccc3C2=O)C1 (centres undefined) | > 100 µM | > 100 µM | > 100 µM | > 100 µM | > 100 µM | > 100 µM | > 100 µM |  | > 100 µM |  |  | 
23 | O=Cn1c2ccccc2c2ccccc21 | > 100 µM | > 100 µM | > 100 µM | > 100 µM | > 100 µM | > 100 µM | > 100 µM |  | > 100 µM |  |  | 
24 | Clc1cc(Cl)nc(Nc2ccc3c(c2)CCC3)n1 |  | 73 µM | > 100 µM | > 100 µM | > 100 µM | > 100 µM | 46 µM | 70.8 µM | 30.4 µM | > 100 µM |  | 
